Reference: the supplement of paper PMC10307832

Tests used:
Assay in all cases: relative viability (nuclei count vs DMSO), 5 days (fraction); higher = more cells survive
[1] = system: NCI-H2170
Method in brief: (§1)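 Lung cancer cell lines, seeded in 1536-well plates, were treated the following day by pin tool with a single drug or with five library-drug doses (not always all listed) in √10 steps on top of a fixed anchor-drug dose. Cells were fixed and nuclei stained in one step after 5 days, and nuclei were counted. Relative viability is the nuclei count for treated wells divided by that for vehicle wells, reported as medians of duplicate plates.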

[2] = system: NCI-H1793
Method in brief: as §1

[3] = system: HARA
Method in brief: as §1

[4] = system: SK-MES-1
Method in brief: as §1

[5] = system: CAL-12T
Method in brief: as §1

[6] = system: NCI-H1915
Method in brief: as §1

[7] = system: H3255
Method in brief: as §1

[8] = system: NCI-H647
Method in brief: as §1

[9] = system: NCI-H441
Method in brief: as §1

[10] = system: BEN
Method in brief: as §1

[11] = system: NCI-H322M
Method in brief: as §1

[12] = system: LOU-NH91
Method in brief: as §1

[13] = system: HCC-15
Method in brief: as §1

[14] = system: LXF-289
Method in brief: as §1

[15] = system: HCC-366
Method in brief: as §1

[16] = system: LC-2-ad
Method in brief: as §1

[17] = system: NCI-H2347
Method in brief: as §1

[18] = system: NCI-H838
Method in brief: as §1

[19] = system: NCI-H2085
Method in brief: as §1

[20] = system: UMC-11
Method in brief: as §1

[21] = system: NCI-H1651
Method in brief: as §1

[22] = system: NCI-H1395
Method in brief: as §1

`Nc1cccc2c1CN(C1CCC(=O)NC1=O)C2=O` (stereo unspecified) [Lenalidomide] + CC1(C)CCC(c2ccc(Cl)cc2)=C(CN2CCN(c3ccc(C(=O)NS(=O)(=O)c4ccc(N[C@H](CCN5CCOCC5)CSc5ccccc5)c(S(=O)(=O)C(F)(F)F)c4)cc3)CC2)C1 [Navitoclax] (partner 0.5 µM) was tested, and the relative viability ([1]; first compound 0.253 µM) was 0.552, the relative viability ([1]; first compound 0.8 µM) was 0.595 and the relative viability ([1]; first compound 2.53 µM) was 0.593. For the same compound, the relative viability ([1]; first compound 8 µM) was 0.481, the relative viability ([2]; first compound 0.253 µM) was 0.349 and the relative viability ([2]; first compound 0.8 µM) was 0.449. For the same compound, the relative viability ([2]; first compound 2.53 µM) was 0.426, the relative viability ([2]; first compound 8 µM) was 0.315 and the relative viability ([3]; first compound 0.253 µM) was 1.14. The relative viability ([3]; first compound 0.8 µM) was 1.12, the relative viability ([3]; first compound 2.53 µM) was 1.19 and the relative viability ([3]; first compound 8 µM) was 1.2. For the same compound, the relative viability ([4]; first compound 0.253 µM) was 1.12, the relative viability ([4]; first compound 0.8 µM) was 1.15 and the relative viability ([4]; first compound 2.53 µM) was 1.3. For the same compound, the relative viability ([4]; first compound 8 µM) was 1.17, the relative viability ([5]; first compound 0.253 µM) was 1.4 and the relative viability ([5]; first compound 0.8 µM) was 1.33. For the same compound, the relative viability ([5]; first compound 2.53 µM) was 1.7, the relative viability ([5]; first compound 8 µM) was 1.3 and the relative viability ([6]; first compound 0.253 µM) was 0.775. It also gave a relative viability ([6]; first compound 0.8 µM) of 0.782, a relative viability ([6]; first compound 2.53 µM) of 0.816 and a relative viability ([6]; first compound 8 µM) of 0.835. For the same compound, the relative viability ([7]; first compound 0.253 µM) was 0.519, the relative viability ([7]; first compound 0.8 µM) was 0.395 and the relative viability ([7]; first compound 2.53 µM) was 0.589. It also gave a relative viability ([7]; first compound 8 µM) of 0.523, a relative viability ([8]; first compound 0.253 µM) of 1.08 and a relative viability ([8]; first compound 0.8 µM) of 1.11. It also gave a relative viability ([8]; first compound 2.53 µM) of 1.4, a relative viability ([8]; first compound 8 µM) of 1.04 and a relative viability ([9]; first compound 0.253 µM) of 0.507. The relative viability ([9]; first compound 0.8 µM) was 0.348, the relative viability ([9]; first compound 2.53 µM) was 0.52 and the relative viability ([9]; first compound 8 µM) was 0.513. For the same compound, the relative viability ([10]; first compound 0.253 µM) was 0.0599, the relative viability ([10]; first compound 0.8 µM) was 0.0573 and the relative viability ([10]; first compound 2.53 µM) was 0.0663. It also gave a relative viability ([10]; first compound 8 µM) of 0.0611, a relative viability ([11]; first compound 0.253 µM) of 1 and a relative viability ([11]; first compound 0.8 µM) of 1.42. It also gave a relative viability ([11]; first compound 2.53 µM) of 1.17, a relative viability ([11]; first compound 8 µM) of 0.965 and a relative viability ([12]; first compound 0.253 µM) of 0.614. The relative viability ([12]; first compound 0.8 µM) was 0.631, the relative viability ([12]; first compound 2.53 µM) was 0.673 and the relative viability ([12]; first compound 8 µM) was 0.692. It also gave a relative viability ([13]; first compound 0.253 µM) of 0.698, a relative viability ([13]; first compound 2.53 µM) of 0.814 and a relative viability ([13]; first compound 8 µM) of 0.676. For the same compound, the relative viability ([14]; first compound 0.253 µM) was 0.963, the relative viability ([14]; first compound 0.8 µM) was 0.971 and the relative viability ([14]; first compound 2.53 µM) was 1.01. The relative viability ([14]; first compound 8 µM) was 1.06, the relative viability ([15]; first compound 0.253 µM) was 1.02 and the relative viability ([15]; first compound 0.8 µM) was 1.19. It also gave a relative viability ([15]; first compound 2.53 µM) of 1.13, a relative viability ([15]; first compound 8 µM) of 1.08 and a relative viability ([16]; first compound 0.253 µM) of 0.448. The relative viability ([16]; first compound 0.8 µM) was 0.421, the relative viability ([16]; first compound 2.53 µM) was 0.478 and the relative viability ([16]; first compound 8 µM) was 0.44. The relative viability ([17]; first compound 0.253 µM) was 0.788, the relative viability ([17]; first compound 0.8 µM) was 0.747 and the relative viability ([17]; first compound 2.53 µM) was 0.842. It also gave a relative viability ([17]; first compound 8 µM) of 0.721, a relative viability ([18]; first compound 0.253 µM) of 1.15 and a relative viability ([18]; first compound 0.8 µM) of 1.09. It also gave a relative viability ([18]; first compound 2.53 µM) of 1.29, a relative viability ([18]; first compound 8 µM) of 1.1 and a relative viability ([19]; first compound 0.253 µM) of 1.25. The relative viability ([19]; first compound 0.8 µM) was 1.16, the relative viability ([19]; first compound 2.53 µM) was 1.26 and the relative viability ([19]; first compound 8 µM) was 1.2. The relative viability ([20]; first compound 0.253 µM) was 0.317, the relative viability ([20]; first compound 0.8 µM) was 0.28 and the relative viability ([20]; first compound 2.53 µM) was 0.346. It also gave a relative viability ([20]; first compound 8 µM) of 0.277, a relative viability ([21]; first compound 0.253 µM) of 1.04 and a relative viability ([21]; first compound 0.8 µM) of 0.931. It also gave a relative viability ([21]; first compound 2.53 µM) of 1.25, a relative viability ([21]; first compound 8 µM) of 0.898 and a relative viability ([22]; first compound 0.253 µM) of 1.2. For the same compound, the relative viability ([22]; first compound 2.53 µM) was 1.31 and the relative viability ([22]; first compound 8 µM) was 0.978.
